Assay results: ChEMBL document CHEMBL4371025, “Discovery and evaluation of novel FAAH inhibitors in neuropathic pain model” (Bioorg Med Chem Lett, 2019)

Assays:
[1] = Intrinsic metabolic stability in rat liver microsomes assessed as metabolic turnover over per mg protein at 1 uM preincubated for 5 mins followed by NADPH cofactor addition and measured after 30 mins by LC-MS/MS analysis; type: ADME, Microsome; conditions: 0.5 h
[2] = AUC (0 to 48 hrs) in Sprague-Dawley rat at 3 mg/kg, iv administered as single dose by LC-MS/MS analysis; type: ADME, organism-based; parameters: dose 3 mg/kg, time < 48 hr, route intravenous; conditions: in vivo
[3] = Cmax in Sprague-Dawley rat at 10 mg/kg, po administered as single dose via gavage by LC-MS/MS analysis; type: ADME, organism-based; parameters: dose 10 mg/kg, route oral; conditions: in vivo
[4] = AUC (0 to 48 hrs) in plasma of Sprague-Dawley rat at 10 mg/kg, po administered as single dose via gavage by LC-MS/MS analysis; type: ADME, organism-based; parameters: time < 48 hr, dose 10 mg/kg, route oral
[5] = Oral bioavailability in Sprague-Dawley rat at 10 mg/kg administered as single dose via gavage by LC-MS/MS analysis; type: ADME, organism-based; conditions: in vivo
Cytochrome P450 1A2 = target: T1, Cytochrome P450 1A2 (Homo sapiens, UniProt P05177); test: Inhibition of CYP1A2 in human liver microsomes using phenacetin as substrate preincubated for 5 mins followed by NADPH cofactor addition and measured after 10 mins by LC-MS/MS analysis; type: ADME
T1 sequence (P05177 whole entry): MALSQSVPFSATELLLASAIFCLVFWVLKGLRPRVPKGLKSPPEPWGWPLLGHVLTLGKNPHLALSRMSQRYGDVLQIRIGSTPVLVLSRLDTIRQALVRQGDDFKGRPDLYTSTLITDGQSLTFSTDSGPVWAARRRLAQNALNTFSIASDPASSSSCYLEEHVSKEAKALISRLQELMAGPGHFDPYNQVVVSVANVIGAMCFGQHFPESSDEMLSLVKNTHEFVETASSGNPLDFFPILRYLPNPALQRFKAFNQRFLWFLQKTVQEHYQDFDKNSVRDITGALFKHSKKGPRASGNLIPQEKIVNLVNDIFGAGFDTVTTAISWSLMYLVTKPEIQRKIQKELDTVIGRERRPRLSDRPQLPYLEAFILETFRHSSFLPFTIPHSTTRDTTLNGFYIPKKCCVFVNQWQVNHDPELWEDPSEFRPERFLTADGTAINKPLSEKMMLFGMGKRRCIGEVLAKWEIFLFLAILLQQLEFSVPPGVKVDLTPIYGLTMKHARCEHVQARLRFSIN

Cytochrome P450 2C9 = Cytochrome P450 2C9 (Homo sapiens, UniProt P11712); test: Inhibition of CYP2C9 in human liver microsomes using diclofenac as substrate preincubated for 5 mins followed by NADPH cofactor addition and measured after 10 mins by LC-MS/MS analysis; type: ADME
Cytochrome P450 2C19 = Cytochrome P450 2C19 (Homo sapiens, UniProt P33261); test: Inhibition of CYP2C19 in human liver microsomes using (S)-mephenytoin as substrate preincubated for 5 mins followed by NADPH cofactor addition and measured after 40 mins by LC-MS/MS analysis; type: ADME
Cytochrome P450 2D6 = Cytochrome P450 2D6 (Homo sapiens, UniProt P10635); test: Inhibition of CYP2D6 in human liver microsomes using dextromethorphan as substrate preincubated for 5 mins followed by NADPH cofactor addition and measured after 10 mins by LC-MS/MS analysis; type: ADME
Cytochrome P450 3A4 [6] = target: T2, Cytochrome P450 3A4 (Homo sapiens, UniProt P08684); test: Inhibition of CYP3A4 in human liver microsomes using testosterone as substrate preincubated for 5 mins followed by NADPH cofactor addition and measured after 10 mins by LC-MS/MS analysis; type: ADME
Cytochrome P450 3A4 [7] = target: T2, Cytochrome P450 3A4; test: Inhibition of CYP3A4 in human liver microsomes using midazolam as substrate preincubated for 5 mins followed by NADPH cofactor addition and measured after 10 mins by LC-MS/MS analysis; type: ADME
[8] = Clearance in Sprague-Dawley rat at 3 mg/kg, iv or 10 mg/kg, po administered as single dose via gavage by LC-MS/MS analysis; type: ADME, organism-based; conditions: in vivo
[9] = Volume of distribution at steady state in Sprague-Dawley rat at 3 mg/kg, iv or 10 mg/kg, po administered as single dose via gavage by LC-MS/MS analysis; type: ADME, organism-based; conditions: in vivo, read-out: Vdss
[10] = Elimination half life in Sprague-Dawley rat at 3 mg/kg, iv or 10 mg/kg, po administered as single dose via gavage by LC-MS/MS analysis; type: ADME, organism-based; conditions: in vivo, read-out: beta t1/2 (converted)
[11] = Ratio of drug level in brain to plasma in Sprague-Dawley rat at 3 mg/kg, iv or 10 mg/kg, po administered as single dose via gavage by LC-MS/MS analysis; type: ADME, organism-based; conditions: brain and plasma, read-out: BPR
[12] = Drug level in plasma of Sprague-Dawley rat at 10 mg/kg, po administered as single dose via gavage measured at 2 hrs by LC-MS/MS analysis; type: ADME, organism-based
[13] = Drug level in plasma of Sprague-Dawley rat at 10 mg/kg, po administered as single dose via gavage measured at 4 hrs by LC-MS/MS analysis; type: ADME, organism-based
[14] = Drug level in liver of Sprague-Dawley rat at 10 mg/kg, po administered as single dose via gavage measured at 2 hrs by LC-MS/MS analysis; type: ADME, organism-based; conditions: read-out: Drug uptake
[15] = Drug level in liver of Sprague-Dawley rat at 10 mg/kg, po administered as single dose via gavage measured at 4 hrs by LC-MS/MS analysis; type: ADME, organism-based; conditions: read-out: Drug uptake
[16] = Drug level in liver of Sprague-Dawley rat at 10 mg/kg, po administered as single dose via gavage measured at 8 hrs by LC-MS/MS analysis; type: ADME, organism-based; conditions: read-out: Drug uptake
[17] = Drug level in liver of Sprague-Dawley rat at 10 mg/kg, po administered as single dose via gavage measured at 24 hrs by LC-MS/MS analysis; type: ADME, organism-based; conditions: read-out: Drug uptake
[18] = Drug level in brain of Sprague-Dawley rat at 10 mg/kg, po administered as single dose via gavage measured at 8 hrs by LC-MS/MS analysis; type: ADME, organism-based; conditions: read-out: Drug uptake
[19] = Drug level in brain of Sprague-Dawley rat at 10 mg/kg, po administered as single dose via gavage measured at 24 hrs by LC-MS/MS analysis; type: ADME, organism-based; conditions: read-out: Drug uptake
[20] = AUC (0 to 48 hrs) in liver of Sprague-Dawley rat at 10 mg/kg, po administered as single dose via gavage by LC-MS/MS analysis; type: ADME, organism-based; parameters: time < 48 hr, dose 10 mg/kg, route oral
[21] = AUC (0 to 48 hrs) in brain of Sprague-Dawley rat at 10 mg/kg, po administered as single dose via gavage by LC-MS/MS analysis; type: ADME, organism-based; parameters: dose 10 mg/kg, time < 48 hr, route oral
[22] = Ratio of AUC (0 to 48 hrs) in liver to plasma of Sprague-Dawley rat at 10 mg/kg, po administered as single dose via gavage by LC-MS/MS analysis; type: ADME, organism-based; conditions: liver and plasma, read-out: Ratio AUC
[23] = Drug level in plasma of Sprague-Dawley rat at 10 mg/kg, po administered as single dose via gavage measured at 48 hrs by LC-MS/MS analysis; type: ADME, organism-based
[24] = Drug level in liver of Sprague-Dawley rat at 10 mg/kg, po administered as single dose via gavage measured at 48 hrs by LC-MS/MS analysis; type: ADME, organism-based; conditions: read-out: Drug uptake
[25] = Drug level in brain of Sprague-Dawley rat at 10 mg/kg, po administered as single dose via gavage measured at 48 hrs by LC-MS/MS analysis; type: ADME, organism-based; conditions: read-out: Drug uptake

Sequence of Cytochrome P450 2C19 (P33261 whole entry): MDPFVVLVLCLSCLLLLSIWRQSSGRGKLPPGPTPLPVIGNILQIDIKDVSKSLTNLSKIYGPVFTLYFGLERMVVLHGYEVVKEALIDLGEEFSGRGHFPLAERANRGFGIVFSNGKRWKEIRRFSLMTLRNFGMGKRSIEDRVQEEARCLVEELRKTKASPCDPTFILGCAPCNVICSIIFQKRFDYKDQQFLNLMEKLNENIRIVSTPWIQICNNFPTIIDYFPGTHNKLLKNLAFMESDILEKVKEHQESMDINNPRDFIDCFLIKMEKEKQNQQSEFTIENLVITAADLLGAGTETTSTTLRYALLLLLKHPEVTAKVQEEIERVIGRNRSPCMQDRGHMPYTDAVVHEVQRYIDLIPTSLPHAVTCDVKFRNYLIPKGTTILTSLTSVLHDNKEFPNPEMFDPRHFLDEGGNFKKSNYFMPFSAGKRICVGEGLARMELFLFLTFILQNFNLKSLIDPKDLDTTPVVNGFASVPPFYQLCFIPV
T2 sequence (P08684 whole entry): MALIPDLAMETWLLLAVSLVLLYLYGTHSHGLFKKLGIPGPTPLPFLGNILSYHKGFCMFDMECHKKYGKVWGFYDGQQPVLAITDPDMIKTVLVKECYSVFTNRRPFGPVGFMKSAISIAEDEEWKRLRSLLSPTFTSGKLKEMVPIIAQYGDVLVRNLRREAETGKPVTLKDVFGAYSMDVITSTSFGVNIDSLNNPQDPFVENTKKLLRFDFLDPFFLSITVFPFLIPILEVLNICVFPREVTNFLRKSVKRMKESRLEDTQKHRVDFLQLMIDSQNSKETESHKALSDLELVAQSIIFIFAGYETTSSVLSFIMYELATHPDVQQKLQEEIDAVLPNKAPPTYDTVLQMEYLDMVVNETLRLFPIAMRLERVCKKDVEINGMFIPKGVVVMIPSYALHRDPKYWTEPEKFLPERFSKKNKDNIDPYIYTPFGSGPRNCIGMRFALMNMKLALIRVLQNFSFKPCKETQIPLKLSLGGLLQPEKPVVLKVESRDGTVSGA
Sequence of Cytochrome P450 2C9 (P11712 whole entry): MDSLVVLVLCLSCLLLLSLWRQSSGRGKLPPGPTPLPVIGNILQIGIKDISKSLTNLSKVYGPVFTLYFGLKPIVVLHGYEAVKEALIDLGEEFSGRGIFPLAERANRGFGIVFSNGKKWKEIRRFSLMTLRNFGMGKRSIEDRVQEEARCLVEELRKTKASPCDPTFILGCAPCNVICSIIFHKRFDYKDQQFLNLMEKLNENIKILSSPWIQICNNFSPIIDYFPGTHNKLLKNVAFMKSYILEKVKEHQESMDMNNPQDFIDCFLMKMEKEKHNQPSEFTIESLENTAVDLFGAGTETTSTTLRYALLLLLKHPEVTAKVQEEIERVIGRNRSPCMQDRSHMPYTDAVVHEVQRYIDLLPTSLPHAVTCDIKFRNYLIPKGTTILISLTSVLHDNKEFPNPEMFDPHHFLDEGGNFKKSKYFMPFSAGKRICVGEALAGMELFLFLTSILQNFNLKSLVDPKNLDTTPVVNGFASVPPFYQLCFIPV
Sequence of Cytochrome P450 2D6 (P10635 whole entry): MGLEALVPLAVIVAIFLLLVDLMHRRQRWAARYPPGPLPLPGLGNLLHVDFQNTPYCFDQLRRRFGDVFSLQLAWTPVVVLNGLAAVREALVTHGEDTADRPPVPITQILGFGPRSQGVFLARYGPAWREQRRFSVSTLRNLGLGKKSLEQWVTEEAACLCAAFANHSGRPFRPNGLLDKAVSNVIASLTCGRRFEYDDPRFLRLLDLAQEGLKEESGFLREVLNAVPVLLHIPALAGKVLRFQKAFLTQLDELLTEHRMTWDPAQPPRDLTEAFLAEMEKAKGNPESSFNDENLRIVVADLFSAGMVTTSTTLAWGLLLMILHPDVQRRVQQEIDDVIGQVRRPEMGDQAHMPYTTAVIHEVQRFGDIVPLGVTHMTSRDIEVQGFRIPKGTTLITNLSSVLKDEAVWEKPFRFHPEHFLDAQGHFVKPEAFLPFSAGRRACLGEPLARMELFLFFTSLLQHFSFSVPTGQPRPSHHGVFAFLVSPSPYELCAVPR

Row | Structure (SMILES) | AUC(0-t) at 48 h [2] | Cmax [3] | AUC(0-t) at 48 h [4] | bioavailability [5] | IC50 (Cytochrome P450 1A2) | IC50 (Cytochrome P450 2C9) | IC50 (Cytochrome P450 2C19) | IC50 (Cytochrome P450 2D6) | IC50 (Cytochrome P450 3A4 [6]) | IC50 (Cytochrome P450 3A4 [7]) | clearance [8] | Vd [9] | half-life [10] | Kp [11] | concentration at 2 h [12] | concentration at 4 h [13] | concentration at 2 h [14] | concentration at 4 h [15] | concentration at 8 h [16] | concentration at 24 h [17] | further results
1 | O=C(N[C@H]1CC/C(=C\c2cccc(Oc3ccc(C(F)(F)F)cn3)c2)CC1)c1cccnc1 (configuration not stated) | 47 µM·h | 7.2 µM | 55 µM·h | 35% | > 10 µM | 2.7 µM | 4.6 µM | > 10 µM | 0.4 µM | 2.4 µM | 2.4 mL/min/kg | 0.9 L/kg | 5.1 h | 1.5 | 7.2 µM | 3.3 µM | 52 µM | 43 µM | 32 µM | 7.7 µM | Drug metabolism [1]: < 0.04 nmol/min/mg; concentration at 8 h [18]: 4.7 µM; concentration at 24 h [19]: 1.1 µM; AUC(0-t) at 48 h [20]: 580 µM·h; AUC(0-t) at 48 h [21]: 84 µM·h; Kp [22]: 10.5
2 | Nc1ncc(C(=O)N[C@H]2CC/C(=C\c3cccc(Oc4ccc(C(F)(F)F)cn4)c3)CC2)cn1 (configuration not stated) | 155 µM·h | 7.8 µM | 237 µM·h | 46% | > 12.5 µM | 6.5 µM | > 12.5 µM | > 12.5 µM | > 12.5 µM | > 12.5 µM | 0.6 mL/min/kg | 0.8 L/kg | 17.2 h | 0.8 | 7.2 µM | 7.8 µM | 31 µM | 38 µM | 34 µM | 23 µM | Drug metabolism [1]: ≤ 0.04 nmol/min/mg; concentration at 48 h [23]: 1.3 µM; concentration at 48 h [24]: 8.9 µM; concentration at 8 h [18]: 7.2 µM; concentration at 24 h [19]: 4.4 µM; concentration at 48 h [25]: 1.1 µM; AUC(0-t) at 48 h [20]: 1020 µM·h; AUC(0-t) at 48 h [21]: 192 µM·h; Kp [22]: 4.3
3 | Cc1cc(C(=O)N[C@H]2CC/C(=C\c3cccc(Oc4ccc(C(F)(F)F)cn4)c3)CC2)cnc1N (configuration not stated) | 109 µM·h | 6.7 µM | 166 µM·h | 46% | > 12.5 µM | 9.2 µM | > 12.5 µM | > 12.5 µM | > 12.5 µM | > 12.5 µM | 0.8 mL/min/kg | 1.2 L/kg | 17 h | 0.5 | 6.7 µM | 4.8 µM | 41 µM | 37 µM | 37 µM | 22 µM | Drug metabolism [1]: 0.04 to 0.09 nmol/min/mg; concentration at 48 h [23]: 1.1 µM; concentration at 48 h [24]: 9.1 µM; concentration at 8 h [18]: 3.2 µM; concentration at 24 h [19]: 1.3 µM; concentration at 48 h [25]: 0.6 µM; AUC(0-t) at 48 h [20]: 1130 µM·h; AUC(0-t) at 48 h [21]: 80.1 µM·h; Kp [22]: 6.9
4 | Nc1ccc(C(=O)N[C@H]2CC/C(=C\c3cccc(Oc4ccc(C(F)(F)F)cn4)c3)CC2)cn1 (configuration not stated) | 152 µM·h | 8.8 µM | 212 µM·h | 42% | > 12.5 µM | 3.4 µM | 9.1 µM | > 12.5 µM | > 12.5 µM | > 12.5 µM | 0.7 mL/min/kg | 0.6 L/kg | 9.2 h | 0.6 | 8.8 µM | 8.6 µM | 72.6 µM | 69.7 µM | 74.9 µM | 33 µM | concentration at 48 h [23]: 1 µM; concentration at 48 h [24]: 16.2 µM; concentration at 8 h [18]: 5.2 µM; concentration at 24 h [19]: 2.5 µM; concentration at 48 h [25]: 0.7 µM; AUC(0-t) at 48 h [20]: 1950 µM·h; AUC(0-t) at 48 h [21]: 135 µM·h; Kp [22]: 9.2
